Assay results from US12534477B2, “Compound having KHK inhibitory effect” (HANGZHOU ZHONGMEIHUADONG PHARMACEUTICAL CO., LTD., priority 2019, dated 2026).

Tests used:
[1] = biological target: Recombinant Human Ketohexokinase (KHK) (Homo sapiens (Human), UniProt P50053); assay: Ketohexokinase assay (KHK assay), ADP-Glo; type: biochemical
Method: • 1. EnVision multilabel reader, Perkin Elmer; • 2. OptiPlate 384-well microplate, Perkin Elmer, Cat. No. 6007290; • 3. Recombinant Human Ketohexokinase (KHK), R&D Cat. No.: 8177-HK-020, Lot No.: DDFK0117092; • 4. Fructose (D(−)-Fructose), SCR Cat. No.: 36003034; and • 5. ADP-Glo kinase assay kit, Promega_Cat. No.: V9101.
1. preparation of Dilution Buffer containing 50 mM hydroxyethylpiperazine […] (Hepes), 140 mM KCl, 3.5 mM MgCl2, and 0.01% bovine serum albumin (BSA), pH 7.4.
2. A working solution of ketohexokinase at 2.5 times concentration was prepared with Dilution Buffer, with 50 nM ketohexokinase and 12.5 mM fructose.
3. A working solution of adenosine triphosphate (ATP) at 2.5 times concentration was prepared with Dilution Buffer, with a concentration of 250 μM.
4. Each compound was diluted starting at a concentration of 500 μM, 3-fold diluted for 9 concentration points. The final concentration of the compound in the reaction system started from 10 μM and the final concentration of dimethyl sulfoxide (DMSO) was 2%.
5. A 96-well plate was prepared as a reaction plate, and was incubated at room temperature for 5 min after adding 6 μL ketohexokinase working solution at 2.5 times concentration to each well and further adding 3 μL compound working solution to each well.
6. The first well of each row was a positive control for a compound, i.e. the same volume of the buffer was added to replace the compound and ketohexokinase. The last well was a negative control for the compound, i.e. the same volume of Dilution Buffer was added instead of the compound.
7. 6 μL ATP working solution was added to each well in a 96-well reaction plate to initiate the kinase reaction. The kinase reaction was incubated in a constant temperature heater at 28° C. for 1 h.
1. A384 plate was prepared as a detection plate, and firstly 5 μL ADP-Glo reagent was added.
2. 5 μL kinase reaction mixture from the reaction plate was added to each well and incubated in a constant temperature heater at 28° C. for 30 min.
3. 10 μL kinase detection reagent was added to each well and incubated in a constant temperature heater at 28° C. for 30 min.
4. The detection plate was placed in an EnVision multilabel reader to read the chemiluminescent signal.

CYP1A2 = CYP1A2 (Homo sapiens (Human), UniProt P05177); type: in vitro ADME; details: human, microsomes, 10 min
Method: The inhibitory effect of test compounds on the activity of human hepatic microsomal cytochrome P450 isozymes (CYP1A2, CYP2C9, CYP2C19, CYP2D6 and CYP3A4) was determined.
First, the test compound (10 mM) was diluted in gradient to prepare working solutions (100×final concentration) with working solution concentrations: 5, 1.5, 0.5, 0.15, 0.05, 0.015, 0.005 mM, respectively, and at the same time, working solutions of each positive inhibitor of P450 isozymes (CYP1A2, CYP2C9, CYP2C19, CYP2D6 and CYP3A4) and its specific substrate mixture were prepared. Human liver microsomes frozen in a −80° C. refrigerator were thawed on ice, and diluted with PB (phosphate buffer) after all the human liver microsomes were dissolved, to prepare a working solution at a certain concentration (0.253 mg/mL). 20 μl substrate mixture was added to the reaction plate (20 μL PB was added to the Blank wells) while 158 μL human liver microsome working solution was added to the reaction plate which was placed on ice for later use. At this time, 2 μL of each concentration of the test compound (N=1) and the specific inhibitor (N=2) were added to the corresponding wells, and the corresponding organic solvents were added to the groups without inhibitors (the test compound or the positive inhibitor) as control samples (1:1 DMSO:MeOH for the test compound control sample, and 1:9 DMSO:MeOH for the positive control sample). After pre-incubation in 37° C. water bath for 10 min, 20 μL coenzyme factor (NADPH) solution was added to the reaction plate, and incubated in 37° C. water bath for 10 min. 400 μL cold acetonitrile solution (200 ng/mL Tolbutamide and Labetalol as the internal standard) was added to stop the reaction. The reaction plate was placed on a shaker and shaken for 10 min. The mixture was centrifuged at 4,000 rpm for 20 min, and 200 μl the supernatant was added to 100 μL water for sample dilution. Finally, the plate was sealed, shaken, mixed well and detected by LC/MS/MS.

CYP1A2, sequence (P05177 whole entry): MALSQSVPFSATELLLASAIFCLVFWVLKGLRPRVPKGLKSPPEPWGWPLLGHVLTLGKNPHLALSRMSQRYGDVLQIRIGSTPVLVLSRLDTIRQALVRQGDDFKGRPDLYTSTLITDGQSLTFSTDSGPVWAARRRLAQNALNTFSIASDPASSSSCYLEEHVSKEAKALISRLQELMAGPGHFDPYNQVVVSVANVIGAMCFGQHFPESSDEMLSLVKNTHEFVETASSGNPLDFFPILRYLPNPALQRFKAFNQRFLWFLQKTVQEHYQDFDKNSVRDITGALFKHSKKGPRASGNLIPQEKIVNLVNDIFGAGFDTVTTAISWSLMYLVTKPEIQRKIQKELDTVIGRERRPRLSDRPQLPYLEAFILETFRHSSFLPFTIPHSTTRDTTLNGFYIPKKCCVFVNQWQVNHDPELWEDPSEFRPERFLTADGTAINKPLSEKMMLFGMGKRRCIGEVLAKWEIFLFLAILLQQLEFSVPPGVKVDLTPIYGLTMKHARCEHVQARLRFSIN
Recombinant Human Ketohexokinase (KHK), sequence (P50053 whole entry): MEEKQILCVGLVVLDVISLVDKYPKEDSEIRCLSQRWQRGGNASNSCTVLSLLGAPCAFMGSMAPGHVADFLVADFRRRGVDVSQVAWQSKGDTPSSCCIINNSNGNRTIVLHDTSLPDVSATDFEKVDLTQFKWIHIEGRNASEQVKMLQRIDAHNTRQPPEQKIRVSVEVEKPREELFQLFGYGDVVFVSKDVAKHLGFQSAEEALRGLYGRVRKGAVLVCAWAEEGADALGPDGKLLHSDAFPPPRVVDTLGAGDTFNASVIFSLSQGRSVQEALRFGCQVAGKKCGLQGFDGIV

- IC50 [1]: 49 nM
- IC50 (CYP1A2): > 50000 nM
Compound: C[C@H]1CCN1c1nc(N2C[C@@H]3[C@@H](CC(=O)O)[C@@H]3C2)c2ccsc2n1 [WX004]
